In US20120225904A1, “New 7-Phenyl-[1,2,4]triazolo[4,3-a]Pyridin-3(2H)-One Derivatives” (priority 2009, published 2012):

Molecular target: T1, human p38alfa (SAPKa) enzyme (Homo sapiens, UniProt Q16539)
T1 construct: purchased University of Dundee
Test: p38alpha enzymatic inhibition assay (FRET, ATF2 substrate)
Type: biochemical
Settings: 1 h pre-incubation; ATF2 0.62 μM, ATP 60 μM; 1 h at 25° C.; read-out: p38α IC50
Procedure: Enzymatic activity assay was performed in 96-well microtiter plates (Corning, catalog number # 3686) using a total volume of 50 μl of an assay buffer composed of 50 mM HEPES (4-(2-hydroxyethyl)-1-piperazineethanesulfonic acid) pH 7.5, 10 mM MgCl2, 1.75 mM Na3VO4.
Various concentrations of the test compound or vehicle controls were pre-incubated for one hour with 0.055 μg/ml of the human p38alfa (SAPKa) enzyme (obtained from University of Dundee). The reaction started by addition of biotinylated ATF2 substrate and ATP in concentrations around their Km values (final concentration 0.62 μM and 60 μM respectively) and took place for one hour at 25° C. Addition of the detection reagents, streptavidin—XL665 and anti-phosphoresidue antibody coupled to Europium cryptate, caused the juxtaposition of the cryptate and the XL665 fluorophore, resulting in fluorescence energy transfer (FRET).The FRET intensity depends on the amount of bounded cryptate antibody, which is proportional to the extent of substrate phosphorylation. FRET intensity was measured using Victor 2V spectrofluorometer.
Data were analyzed by non-linear regression (Hill equation) to generate a dose-response curve. The calculated IC50 value is the concentration of the test compound that caused a 50% decrease in the maximal FRET intensity.

T1 sequence (Q16539 whole entry): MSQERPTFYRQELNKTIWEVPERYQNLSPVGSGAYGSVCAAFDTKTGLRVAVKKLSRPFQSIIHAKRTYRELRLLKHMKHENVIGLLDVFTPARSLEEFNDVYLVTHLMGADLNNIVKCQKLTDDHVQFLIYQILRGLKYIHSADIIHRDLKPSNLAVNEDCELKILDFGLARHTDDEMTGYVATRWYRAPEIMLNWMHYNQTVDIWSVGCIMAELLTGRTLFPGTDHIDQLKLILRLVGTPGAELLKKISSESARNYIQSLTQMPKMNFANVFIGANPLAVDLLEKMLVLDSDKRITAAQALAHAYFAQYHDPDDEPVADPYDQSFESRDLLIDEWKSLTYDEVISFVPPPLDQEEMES

| IC50 | Compound |
| --- | --- |
| 12 nM | Cc1ccc2c(NC3CC3)noc2c1-c1ccn2c(=O)n(CC(C)(C)C)nc2c1 [Example 11] |
| 2 nM | Cc1c(F)cc(C(=O)NC2CC2)cc1-c1ccn2c(=O)n(CC(C)(C)C)nc2c1 [Example 2, N-cyclopropyl-3-[2-(2,2-dimethylpropyl)-3-oxo-2,3-dihydro[1,2,4]triazolo[4,3-a]pyridin-7-yl]-5-fluoro-4-methylbenzamide] |
| 1.08 nM | Cc1c(F)cc(C(=O)NC2CC2)cc1-c1ccn2c(=O)n(-c3ccccc3Cl)nc2c1 [Example 7, 3-[2-(2-Chlorophenyl)-3-oxo-2,3-dihydro[1,2,4]triazolo[4,3-a]pyridin-7-yl]-N-cyclopropyl-5-fluoro-4-methylbenzamide] |
